PMC4076632, “VAV3 mediates resistance to breast cancer endocrine therapy” (Breast Cancer Research : BCR, 2014)

Target: T1, estrogen receptor α (ERα) (Homo sapiens, UniProt P03372)
T1 construct: gene ESR1
T1 sequence (P03372 1-595): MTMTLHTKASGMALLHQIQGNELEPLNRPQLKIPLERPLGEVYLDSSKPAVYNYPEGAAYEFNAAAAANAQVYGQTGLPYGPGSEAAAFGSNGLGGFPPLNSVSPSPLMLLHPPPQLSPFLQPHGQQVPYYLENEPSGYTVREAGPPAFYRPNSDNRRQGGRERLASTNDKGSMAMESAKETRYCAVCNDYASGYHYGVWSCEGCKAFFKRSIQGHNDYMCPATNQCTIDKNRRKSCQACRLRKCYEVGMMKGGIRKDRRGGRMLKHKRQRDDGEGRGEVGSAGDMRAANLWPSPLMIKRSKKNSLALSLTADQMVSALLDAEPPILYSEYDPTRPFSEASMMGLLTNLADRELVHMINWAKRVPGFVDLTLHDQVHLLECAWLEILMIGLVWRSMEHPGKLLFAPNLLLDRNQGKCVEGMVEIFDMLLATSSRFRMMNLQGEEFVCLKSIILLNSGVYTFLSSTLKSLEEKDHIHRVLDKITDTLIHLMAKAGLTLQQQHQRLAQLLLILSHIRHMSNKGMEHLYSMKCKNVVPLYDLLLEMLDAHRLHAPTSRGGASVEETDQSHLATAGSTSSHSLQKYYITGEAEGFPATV
Assay: ERα agonist fluoligand competition assay (Cerep) with fluorescein-labeled estradiol
Assay type: binding

Ki: 26 µM
SMILES: OCc1ccc(-c2nn(Cc3ccccc3)c3ccccc23)o1 [YC-1, 3-(5′-hydroxymethyl-2′-furyl)-1-benzylindazole]
